Experiments:
[1] = target: T1, HDAC6 (Homo sapiens, UniProt Q9UBN7); test: Determination of Koff kinetics against HDAC6 protein; assay type: biochemical; conditions: for residence time: 100 nM HDAC6 pre-incubated with 0.120 μM compound for 3 hr, diluted 200×, Ln(2)/Kobs, read-out: residence time for binding to HDAC6
T1 sequence (Q9UBN7 1-1215): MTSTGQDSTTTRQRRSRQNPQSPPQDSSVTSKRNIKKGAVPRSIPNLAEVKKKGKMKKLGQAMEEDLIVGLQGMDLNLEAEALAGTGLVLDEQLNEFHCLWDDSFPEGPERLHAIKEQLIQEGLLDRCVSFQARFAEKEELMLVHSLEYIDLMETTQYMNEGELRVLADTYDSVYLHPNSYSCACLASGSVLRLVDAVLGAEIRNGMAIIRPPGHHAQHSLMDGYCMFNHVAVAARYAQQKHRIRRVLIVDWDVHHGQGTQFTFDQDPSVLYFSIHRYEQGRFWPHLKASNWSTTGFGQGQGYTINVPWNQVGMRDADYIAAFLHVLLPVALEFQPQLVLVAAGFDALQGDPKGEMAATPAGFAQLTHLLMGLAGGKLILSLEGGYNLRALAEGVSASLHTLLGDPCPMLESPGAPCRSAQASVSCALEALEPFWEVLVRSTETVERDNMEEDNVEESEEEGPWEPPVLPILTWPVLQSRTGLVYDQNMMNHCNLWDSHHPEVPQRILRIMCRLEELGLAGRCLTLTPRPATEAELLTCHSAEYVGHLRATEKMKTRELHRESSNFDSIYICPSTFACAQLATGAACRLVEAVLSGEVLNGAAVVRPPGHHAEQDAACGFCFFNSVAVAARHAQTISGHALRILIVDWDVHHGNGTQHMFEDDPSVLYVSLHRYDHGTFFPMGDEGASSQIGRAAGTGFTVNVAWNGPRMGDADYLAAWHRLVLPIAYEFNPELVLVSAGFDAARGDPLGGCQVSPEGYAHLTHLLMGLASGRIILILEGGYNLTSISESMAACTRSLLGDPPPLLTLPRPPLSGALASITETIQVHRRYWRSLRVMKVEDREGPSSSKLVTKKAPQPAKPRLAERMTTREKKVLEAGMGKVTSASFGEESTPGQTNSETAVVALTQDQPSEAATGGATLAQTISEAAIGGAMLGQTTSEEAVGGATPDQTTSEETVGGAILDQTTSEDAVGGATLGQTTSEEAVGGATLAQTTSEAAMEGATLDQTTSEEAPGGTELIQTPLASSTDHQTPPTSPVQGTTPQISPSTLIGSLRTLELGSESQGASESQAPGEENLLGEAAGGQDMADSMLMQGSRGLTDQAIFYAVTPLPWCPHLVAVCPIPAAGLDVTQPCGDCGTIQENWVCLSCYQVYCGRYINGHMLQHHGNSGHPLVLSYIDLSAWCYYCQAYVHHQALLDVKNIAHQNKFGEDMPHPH
Description: The disassociation rate for #1a (FIG. 3) or #1b (FIG. 4) was determined by pre-incubating 100 nM HDAC6 protein with 0.120 μM compound #1a, #1b, or DMSO for 3 hr. After pre-incubation, the compound-enzyme complex was diluted (200×) into an assay buffer with substrate peptide. Progress curves for ˜8 hrs were observed using Labchip3000 instrument. Progress curve after pre-incubation with compound (blue) was fit with following equation: ((A+(Vs*x))+(((Vo−Vs)*(1−exp(((−1)*Kobs)*t)))/Kobs)), to determine observed rate of dissociation. Residence time was determined as Ln(2)/Kobs.

[2] = Tumor uptake and retention (FIG. 2); assay type: in vivo
Excerpt: Volume of distribution is one of the most important pharmacokinetic properties of a drug candidate and for an anticancer drug can result in increased drug distribution to the tumor.

[3] = target: T2, HDAC9 (Homo sapiens, UniProt Q9UKV0); test: Inhibition of HDAC enzymes, 12-point concentration-response; assay type: biochemical
T2 construct: purchased BPS 50009
Description: (§1) Compounds were tested in a 12-point concentration-response format against 11 HDAC enzymes as outlined in Table 2A. Test compounds were diluted in 100% DMSO using 3-fold dilution steps. The final compound concentration in the assay ranged from 100 μM to 0.565 nM or as requested. Compounds were tested in a single well for each dilution, and the final concentration of DMSO in all assays was kept at 1%. Reference compounds were tested in an identical manner.

[4] = target: T3, HDAC11 (Homo sapiens, UniProt Q96DB2); test: as above; assay type: biochemical
T3 construct: made in house
Description: as §1

[5] = target: T4, HDAC8 (Homo sapiens, UniProt Q9BY41); test: as above; assay type: biochemical
T4 construct: purchased BPS 50008
Description: as §1

[6] = target: T5, HDAC10 (Homo sapiens, UniProt Q969S8); test: as above; assay type: biochemical; conditions: for IC50: HDAC10
T5 construct: made in house
T5 sequence (Q969S8 1-669): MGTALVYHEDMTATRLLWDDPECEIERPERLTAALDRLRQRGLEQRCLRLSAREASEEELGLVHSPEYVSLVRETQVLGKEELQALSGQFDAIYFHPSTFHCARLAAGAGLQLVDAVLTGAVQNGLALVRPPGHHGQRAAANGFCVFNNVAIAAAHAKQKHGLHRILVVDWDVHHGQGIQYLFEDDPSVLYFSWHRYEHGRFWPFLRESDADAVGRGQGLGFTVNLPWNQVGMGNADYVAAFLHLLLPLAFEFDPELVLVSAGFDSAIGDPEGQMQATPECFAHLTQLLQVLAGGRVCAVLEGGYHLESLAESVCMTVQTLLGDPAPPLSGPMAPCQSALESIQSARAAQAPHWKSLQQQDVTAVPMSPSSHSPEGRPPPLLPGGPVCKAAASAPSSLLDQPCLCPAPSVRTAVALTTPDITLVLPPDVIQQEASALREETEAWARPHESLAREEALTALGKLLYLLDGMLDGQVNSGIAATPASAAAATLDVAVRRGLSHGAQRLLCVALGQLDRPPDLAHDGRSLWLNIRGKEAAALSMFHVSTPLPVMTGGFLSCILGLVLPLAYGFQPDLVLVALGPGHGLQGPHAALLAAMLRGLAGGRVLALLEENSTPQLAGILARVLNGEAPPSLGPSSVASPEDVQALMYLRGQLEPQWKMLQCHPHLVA
Description: as §1

[7] = target: T6, HDAC1 (Homo sapiens, UniProt Q13547); test: as above; assay type: biochemical
T6 construct: purchased BPS 50051
Description: as §1

[8] = target: T7, HDAC4 (Homo sapiens, UniProt P56524); test: as above; assay type: biochemical
T7 construct: made in house
Description: as §1

[9] = target: T1, HDAC6; test: as above; assay type: biochemical; design: made in house; conditions: for IC50: HDAC6
Description: as §1

T2 sequence (Q9UKV0 1-1066 isoform Q9UKV0-5): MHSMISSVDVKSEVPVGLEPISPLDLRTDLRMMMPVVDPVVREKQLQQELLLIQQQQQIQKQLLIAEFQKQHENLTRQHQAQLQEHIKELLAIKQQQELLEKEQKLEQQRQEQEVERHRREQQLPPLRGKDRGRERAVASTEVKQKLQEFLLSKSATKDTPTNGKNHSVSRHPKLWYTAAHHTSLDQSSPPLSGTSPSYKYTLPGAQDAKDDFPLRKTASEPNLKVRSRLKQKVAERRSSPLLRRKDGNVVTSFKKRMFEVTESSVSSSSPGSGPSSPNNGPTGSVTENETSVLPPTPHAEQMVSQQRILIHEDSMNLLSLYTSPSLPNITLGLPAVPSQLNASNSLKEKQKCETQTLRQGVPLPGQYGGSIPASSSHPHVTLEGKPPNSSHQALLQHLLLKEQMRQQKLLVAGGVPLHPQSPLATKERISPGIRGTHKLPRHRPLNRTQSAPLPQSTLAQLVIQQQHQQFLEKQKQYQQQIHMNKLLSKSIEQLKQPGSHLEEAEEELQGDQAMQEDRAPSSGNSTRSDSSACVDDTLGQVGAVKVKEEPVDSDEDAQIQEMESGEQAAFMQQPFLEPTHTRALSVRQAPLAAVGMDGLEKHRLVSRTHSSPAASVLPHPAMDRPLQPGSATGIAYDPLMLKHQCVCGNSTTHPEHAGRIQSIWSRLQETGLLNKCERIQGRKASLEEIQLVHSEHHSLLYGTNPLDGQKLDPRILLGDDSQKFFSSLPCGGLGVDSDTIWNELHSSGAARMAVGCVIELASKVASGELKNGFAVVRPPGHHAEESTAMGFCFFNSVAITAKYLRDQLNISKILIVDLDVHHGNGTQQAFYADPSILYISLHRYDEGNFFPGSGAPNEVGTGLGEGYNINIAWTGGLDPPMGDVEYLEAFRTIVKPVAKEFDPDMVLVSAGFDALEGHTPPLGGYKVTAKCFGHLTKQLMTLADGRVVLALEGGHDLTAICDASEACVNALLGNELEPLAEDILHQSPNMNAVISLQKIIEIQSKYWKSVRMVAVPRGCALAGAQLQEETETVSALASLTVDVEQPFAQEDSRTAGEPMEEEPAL
T3 sequence (Q96DB2 whole entry, species assumed): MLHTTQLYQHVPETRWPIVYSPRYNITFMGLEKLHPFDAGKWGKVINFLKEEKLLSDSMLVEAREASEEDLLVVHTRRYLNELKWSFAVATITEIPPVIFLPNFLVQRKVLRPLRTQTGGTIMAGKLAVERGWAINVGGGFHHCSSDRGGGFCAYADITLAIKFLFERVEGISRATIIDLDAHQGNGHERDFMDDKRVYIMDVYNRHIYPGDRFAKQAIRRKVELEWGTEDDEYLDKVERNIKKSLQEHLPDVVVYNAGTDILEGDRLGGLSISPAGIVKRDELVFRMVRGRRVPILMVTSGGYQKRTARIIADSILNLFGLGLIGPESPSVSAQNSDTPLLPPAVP
T6 sequence (Q13547 whole entry): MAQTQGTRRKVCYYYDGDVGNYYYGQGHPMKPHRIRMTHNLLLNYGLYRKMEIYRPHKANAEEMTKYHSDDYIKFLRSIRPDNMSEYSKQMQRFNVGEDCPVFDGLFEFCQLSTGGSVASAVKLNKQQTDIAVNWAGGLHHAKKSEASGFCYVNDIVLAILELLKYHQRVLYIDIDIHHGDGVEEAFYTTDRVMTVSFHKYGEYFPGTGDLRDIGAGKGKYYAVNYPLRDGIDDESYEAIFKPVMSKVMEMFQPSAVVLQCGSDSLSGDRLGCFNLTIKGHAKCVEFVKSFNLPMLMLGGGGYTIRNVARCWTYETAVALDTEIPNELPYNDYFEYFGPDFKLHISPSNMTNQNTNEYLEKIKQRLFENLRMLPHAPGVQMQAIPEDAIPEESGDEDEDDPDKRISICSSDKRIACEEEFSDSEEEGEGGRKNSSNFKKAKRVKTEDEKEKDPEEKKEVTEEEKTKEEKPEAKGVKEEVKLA
T7 sequence (P56524 whole entry, species assumed): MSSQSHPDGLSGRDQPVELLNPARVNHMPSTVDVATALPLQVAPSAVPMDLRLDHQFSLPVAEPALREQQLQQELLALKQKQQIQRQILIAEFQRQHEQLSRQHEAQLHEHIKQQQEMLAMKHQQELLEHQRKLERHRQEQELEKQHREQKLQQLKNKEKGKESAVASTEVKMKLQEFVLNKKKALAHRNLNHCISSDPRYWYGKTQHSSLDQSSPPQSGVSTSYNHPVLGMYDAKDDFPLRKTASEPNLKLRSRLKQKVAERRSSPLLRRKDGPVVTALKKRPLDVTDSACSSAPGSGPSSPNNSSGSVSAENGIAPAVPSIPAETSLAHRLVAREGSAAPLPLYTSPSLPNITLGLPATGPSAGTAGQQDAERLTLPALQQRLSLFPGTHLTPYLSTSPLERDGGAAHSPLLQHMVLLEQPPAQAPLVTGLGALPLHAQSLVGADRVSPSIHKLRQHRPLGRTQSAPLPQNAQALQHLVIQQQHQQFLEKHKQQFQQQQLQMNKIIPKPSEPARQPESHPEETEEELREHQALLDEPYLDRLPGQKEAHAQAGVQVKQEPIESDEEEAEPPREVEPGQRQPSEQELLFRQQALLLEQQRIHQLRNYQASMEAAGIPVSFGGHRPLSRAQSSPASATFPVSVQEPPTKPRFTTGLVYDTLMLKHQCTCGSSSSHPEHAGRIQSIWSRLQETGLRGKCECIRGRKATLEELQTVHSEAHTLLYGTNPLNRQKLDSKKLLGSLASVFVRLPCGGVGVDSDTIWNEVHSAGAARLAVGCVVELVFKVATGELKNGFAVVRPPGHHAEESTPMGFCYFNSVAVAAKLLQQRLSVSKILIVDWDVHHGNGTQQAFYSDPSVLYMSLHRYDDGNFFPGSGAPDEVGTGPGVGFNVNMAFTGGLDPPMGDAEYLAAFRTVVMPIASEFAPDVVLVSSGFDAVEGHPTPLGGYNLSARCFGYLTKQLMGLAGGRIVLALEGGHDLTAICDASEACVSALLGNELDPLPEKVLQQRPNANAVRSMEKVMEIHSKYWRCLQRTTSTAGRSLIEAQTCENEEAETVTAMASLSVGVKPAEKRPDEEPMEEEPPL
T4 sequence (Q9BY41 whole entry): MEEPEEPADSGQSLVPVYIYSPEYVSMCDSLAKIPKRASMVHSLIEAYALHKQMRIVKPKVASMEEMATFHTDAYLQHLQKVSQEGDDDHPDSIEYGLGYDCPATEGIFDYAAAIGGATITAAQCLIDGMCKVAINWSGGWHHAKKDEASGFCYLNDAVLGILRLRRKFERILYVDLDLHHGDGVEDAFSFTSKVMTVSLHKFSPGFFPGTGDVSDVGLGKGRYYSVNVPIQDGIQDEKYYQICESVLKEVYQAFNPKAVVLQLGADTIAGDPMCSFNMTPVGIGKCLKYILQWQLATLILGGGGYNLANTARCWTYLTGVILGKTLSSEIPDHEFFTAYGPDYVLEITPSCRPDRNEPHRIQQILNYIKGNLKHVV

Q: What does the source list for `CC[C@H](C(=O)Nc1ncc(C(=O)NO)s1)c1ccc(OC)cc1` [#1a, (S)—N-hydroxy-2-(2-(4-methoxyphenyl)butanamido)thiazole-5-carboxamide]?
A: residence time [1]: 1920 min; binding to HDAC6 (in words) ([1]; HDAC6): very tightly bound inhibitor of HDAC6; increase in residence time compared to #1b ([1]; HDAC6): 55 fold; tumor uptake and retention [2]: preferential and significant tumor uptake and retention; Fold (1b/1a) ([3]; ratio of IC50, HDAC9): 1.1; Fold (1b/1a) ([4]; ratio of IC50, HDAC11): 0.73; Fold (1b/1a) ([5]; ratio of IC50, HDAC8): 3.1; IC50 [6]: 2 nM; Fold (1b/1a) ([6]; ratio of IC50, HDAC10): 7.3; Fold (1b/1a) ([7]; ratio of IC50, HDAC1): 7.8; Fold (1b/1a) ([8]; ratio of IC50, HDAC4): 1.2; IC50 [9]: 0.71 nM; Fold (1b/1a) ([9]; ratio of IC50, HDAC6): 1.5

Q: For `CC[C@@H](C(=O)Nc1ncc(C(=O)NO)s1)c1ccc(OC)cc1` [#1b, (R)—N-hydroxy-2-(2-(4-methoxyphenyl)butanamido)thiazole-5-carboxamide], which residence time [1] is on record?
A: 35 min

Q: What about the IC50 ([3]; HDAC9) of the same compound?
A: 210 nM

Q: What about the IC50 ([4]; HDAC11) of the same compound?
A: 4220 nM

Q: And the IC50 ([5]; HDAC8)?
A: 416 nM

Q: And the IC50 [6]?
A: 14.6 nM

Q: What about the IC50 ([7]; HDAC1) of the same compound?
A: 7.8 nM

Q: What about the IC50 ([8]; HDAC4) of the same compound?
A: 160 nM

Q: And the IC50 [9]?
A: 1.1 nM
